The values that follow are results of earlier work, collected in patent US20250049963A1, “GLYCOSYLATED DENDRIMERS FOR TARGETED INTRACELLULAR DELIVERY” (The Johns Hopkins University, priority 2021, published 2025).

The target of the data set is T1, GLUT2 (Homo sapiens, UniProt P11168).
T1 sequence (P11168 1-524): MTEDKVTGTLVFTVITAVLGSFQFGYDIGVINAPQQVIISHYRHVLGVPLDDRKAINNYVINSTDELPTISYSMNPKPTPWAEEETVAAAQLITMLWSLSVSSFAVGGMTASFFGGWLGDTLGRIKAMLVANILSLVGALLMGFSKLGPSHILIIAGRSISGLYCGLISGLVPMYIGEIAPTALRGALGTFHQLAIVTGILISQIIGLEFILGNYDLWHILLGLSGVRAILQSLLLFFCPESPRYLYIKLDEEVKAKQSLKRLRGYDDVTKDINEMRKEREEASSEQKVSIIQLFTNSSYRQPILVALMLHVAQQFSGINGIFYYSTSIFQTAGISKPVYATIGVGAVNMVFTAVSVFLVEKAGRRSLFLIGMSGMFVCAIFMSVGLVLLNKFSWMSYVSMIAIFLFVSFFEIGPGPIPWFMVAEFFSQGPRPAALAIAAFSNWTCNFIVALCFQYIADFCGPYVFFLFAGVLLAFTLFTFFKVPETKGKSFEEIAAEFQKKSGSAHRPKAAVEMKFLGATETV
The note with it: cited from earlier work.

On to `NC1C(O)[C@H](O)C(CO)O[C@@H]1O` (stereo partly shown) [GlcN, glucosamine], for which the “affinity of GLUT2 for GlcN relative to glucose” value is about 20 fold.
